Reference: BindingDB's records for doi:10.1016/j.bmc.2013.03.035 (University of Poitiers, 2013)

Test: Inhibition of bovine liver beta-glucosidase

CC[C@@H]1NC[C@@H](O)[C@@H](O)[C@H](O)[C@H]1O
IC50: 487 µM
